Series [1] concerns the target T1, HDAC2 (Homo sapiens, UniProt Q92769).
T1 construct: purchased BPS Biosciences
The series is described as follows: HDAC enzyme assay, HDAC2 (fluorescence, tripeptide substrate/trypsin). Type of series: biochemical. The following applies: 0.2 ng/ml enzyme, 10 μM substrate, 10 min preincubation. The method, then:
(§1) Compounds for testing were diluted in […] to 50 fold the final concentration and a ten-point three-fold dilution series was made. The compounds were diluted in assay buffer (50 mM HEPES, pH 7.4, 100 mM KCl, 0.001% Tween-20, 0.05% BSA, 20 μM TCEP) to 6-fold their final concentration. The HDAC enzymes (purchased from BPS Biosciences) were diluted to 1.5-fold their final concentration in assay buffer. The tripeptide substrate and trypsin at 0.05 μM final concentration were diluted in assay buffer at 6-fold their final concentration. The final enzyme concentrations used in these assays were 3.3 ng/ml (HDAC1), 0.2 ng/ml (HDAC2) and 0.08 ng/ml (HDAC3). The final substrate concentrations used were 16 μM (HDAC1), 10 μM (HDAC2) and 17 μM (HDAC3).
(§2) Five μl of compounds and 20 μl of enzyme were added to wells of a black, opaque 384 well plate in duplicate. Enzyme and compound were incubated together at room temperature for 10 minutes. Five μl of substrate was added to each well, the plate was shaken for 60 seconds and placed into a Victor 2 microtiter plate reader. The development of fluorescence was monitored for 60 min and the linear rate of the reaction was calculated. The IC50 was determined using Graph Pad Prism by a four parameter curve fit.

Series [2] concerns the target T2, HDAC3 (Homo sapiens, UniProt O15379).
T2 construct: purchased BPS Biosciences
The series is described as follows: HDAC enzyme assay, HDAC3 (fluorescence, tripeptide substrate/trypsin). Format: biochemical. The following applies: 0.08 ng/ml enzyme, 17 μM substrate, 10 min preincubation. The method, then:
as §1, §2

Series [3] in a line: Pharmacokinetics in male SD rats (cassette dosing, IV and PO), plasma level by LC/MS/MS. Format: in vivo. The following applies: male SD rat, IV 1 mg/kg; for AUC: read-out: IV AUC; for CL renal: read-out: IV Clr.; for half-life: read-out: IV t1/2. The method, then: Male SD rats were fasted overnight. Compounds of the invention were dissolved in dimethyl acetamide at 10 times the final concentration, then Solutol HS 15 (BASF) was added to a final concentration of 10%. Finally, 80% saline was added and vortexed to achieve a clear solution. For the IV dosing three animals were injected via the foot dorsal vein with 1 mg/kg compound. For the PO dosing 5 mg/kg of compound was delivered by oral gavage. Blood was collected via the tail vein into K2EDTA tubes at 5 minutes, 15 minutes, 30 minutes, 1 hour, 2 hours, 4 hours, 8 hours and 24 hours after dosing. The blood was centrifuged at 2000 g for 5 minutes at 4° C. to obtain plasma. The plasma was extracted with acetonitrile and the level of compound was analyzed by LC/MS/MS. The level of compound in plasma was calculated from a standard curve in rat plasma. The IV clearance (L/h/kg) and area under the curve (h*ng/mL) were calculated using WinNonLin software. The dose adjusted area under the curve for the IV and oral dosing were used to calculate the oral bioavailability.
Pharmacokinetic properties were assessed in a rat cassette dosing experiment. The IV clearance (IV Clr.) is in units of L/hr/kg. The oral maximum plasma concentration (PO Cmax) is in units of ng/ml. The oral plasma half-life (PO T½) is in units of hours. The oral area under the curve (PO AUC) is in units of hours*ng/ml. The fraction absorbed by the oral route (F %) is a percentage of the oral area under the curve to the IV area under the curve, dose adjusted.

Series [4] has as its target T3, HDAC1 (Homo sapiens, UniProt Q13547).
T3 construct: purchased BPS Biosciences
The series is described as follows: HDAC enzyme assay, HDAC1 (fluorescence, tripeptide substrate/trypsin). Format: biochemical. Particulars: 3.3 ng/ml enzyme, 16 μM substrate, 10 min preincubation. The method, then: as §1, §2

T2 sequence (O15379 whole entry): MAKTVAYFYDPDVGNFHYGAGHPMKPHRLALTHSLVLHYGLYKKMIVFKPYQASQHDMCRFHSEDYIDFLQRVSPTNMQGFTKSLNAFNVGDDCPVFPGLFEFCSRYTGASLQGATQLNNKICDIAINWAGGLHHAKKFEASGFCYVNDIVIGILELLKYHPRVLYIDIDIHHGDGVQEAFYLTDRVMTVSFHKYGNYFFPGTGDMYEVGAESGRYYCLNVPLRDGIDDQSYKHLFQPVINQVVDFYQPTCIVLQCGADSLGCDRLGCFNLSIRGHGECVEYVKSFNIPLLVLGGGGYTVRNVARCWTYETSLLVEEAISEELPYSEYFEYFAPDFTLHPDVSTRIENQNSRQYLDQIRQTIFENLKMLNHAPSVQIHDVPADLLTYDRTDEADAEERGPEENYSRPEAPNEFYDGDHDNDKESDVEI
T2 sequence (Q9Y618 395-489 partner limits assumed): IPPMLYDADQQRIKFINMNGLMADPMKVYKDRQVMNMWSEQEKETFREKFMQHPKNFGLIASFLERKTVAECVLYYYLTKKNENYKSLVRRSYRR
T3 sequence (Q13547 whole entry): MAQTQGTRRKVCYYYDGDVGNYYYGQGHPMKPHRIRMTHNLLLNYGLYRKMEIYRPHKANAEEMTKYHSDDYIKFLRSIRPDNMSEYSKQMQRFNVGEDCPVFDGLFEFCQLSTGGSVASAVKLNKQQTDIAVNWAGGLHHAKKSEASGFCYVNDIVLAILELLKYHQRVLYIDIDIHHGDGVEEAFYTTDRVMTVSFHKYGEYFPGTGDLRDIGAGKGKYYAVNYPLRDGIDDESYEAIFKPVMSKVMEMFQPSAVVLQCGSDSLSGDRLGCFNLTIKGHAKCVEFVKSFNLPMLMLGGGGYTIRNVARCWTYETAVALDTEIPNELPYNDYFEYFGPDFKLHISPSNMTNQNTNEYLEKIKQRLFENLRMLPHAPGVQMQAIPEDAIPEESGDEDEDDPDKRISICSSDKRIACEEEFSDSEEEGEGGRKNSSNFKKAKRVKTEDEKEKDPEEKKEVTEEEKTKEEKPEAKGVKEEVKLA
T1 sequence (Q92769 whole entry): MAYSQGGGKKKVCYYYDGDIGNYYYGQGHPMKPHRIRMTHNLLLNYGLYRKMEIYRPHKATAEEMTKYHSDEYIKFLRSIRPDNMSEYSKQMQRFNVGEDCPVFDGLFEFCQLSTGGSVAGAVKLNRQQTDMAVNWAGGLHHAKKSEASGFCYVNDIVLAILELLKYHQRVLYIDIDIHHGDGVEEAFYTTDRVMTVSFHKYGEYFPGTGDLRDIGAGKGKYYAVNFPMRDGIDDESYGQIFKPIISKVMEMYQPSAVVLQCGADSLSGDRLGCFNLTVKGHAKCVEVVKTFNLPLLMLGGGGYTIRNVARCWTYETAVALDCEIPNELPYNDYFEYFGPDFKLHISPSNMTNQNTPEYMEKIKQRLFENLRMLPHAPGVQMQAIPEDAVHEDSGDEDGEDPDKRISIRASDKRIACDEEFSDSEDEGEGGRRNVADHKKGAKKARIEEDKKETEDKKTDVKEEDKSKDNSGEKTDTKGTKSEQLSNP

As to `CN(C)CCNc1ccc2cc(C(=O)Nc3cc(-c4cccs4)ccc3N)ncc2c1` [Compound 024], the half-inhibitory concentration (IC50) (commonly the concentration that inhibits the measured activity by half) was 5 to 10 nM in series [1], 15 to 90 nM in series [2] and less than 5 nM in series [4]. For the same compound, the AUC (in general, concentration integrated over time) in series [3] fell in the range of 20 to 25 ng·h/mL. Moreover, the CL renal in series [3] is less than 8.33 mL/min/kg. Further, in series [3], the half-life fell in the range of 900 to 1200 min.

`CN(C)CCNc1ccc2cc(C(=O)Nc3cc(-c4cccs4)ccc3N)cnc2c1` [Compound 025] yielded an IC50 in series [1] of 15 to 20 nM. This compound registered an IC50 in series [2] of 110 to 200 nM. Also, in series [3], the AUC fell in the range of 15 to 20 ng·h/mL, the CL renal is less than 8.33 mL/min/kg and the half-life was in the range of 60 to 300 min. Besides, the half-maximal inhibitory concentration (IC50) in series [4] was in the range of 5 to 15 nM.

As to `COCCNc1ccc2cc(C(=O)Nc3cc(-c4cccs4)ccc3N)cnc2c1` [Compound 029], the IC50 in series [1] lay within 50 to 105 nM. The same compound yielded a half-maximal inhibitory concentration (IC50) in series [2] of 750 to 760 nM. In addition, in series [3], the AUC was 20 to 25 ng·h/mL, the CL renal is less than 1.67 mL/min/kg and the half-life lay within 60 to 180 min. This compound yielded an IC50 in series [4] of 15 to 25 nM.

In series [1], `COCCN(C)c1ccc2cc(C(=O)Nc3cc(-c4cccs4)ccc3N)cnc2c1` [Compound 030] came in with a half-maximal inhibitory concentration (IC50) of 155 to 160 nM. For the same compound, the concentration for half-maximal inhibition (IC50) in series [2] was 1200 to 1230 nM. Further, in series [3], the AUC lay in the range of 1 to 5 ng·h/mL, the CL renal is less than 1.67 mL/min/kg and the half-life was less than 30 min. Further, in series [4], the IC50 was in the range of 50 to 55 nM.

Take `CN(C)CCN(C)c1ccc2cc(C(=O)Nc3cc(-c4cccs4)ccc3N)cnc2c1` [Compound 031]: the results for the IC50 in series [1], in series [2] and in series [4] were 15 to 25 nM, 240 to 250 nM and less than 5 nM, respectively. Besides, the AUC in series [3] is 1 to 5 ng·h/mL. Moreover, the CL renal in series [3] was less than 3.33 mL/min/kg. The half-life in series [3] lay in the range of 30 to 60 min.

As to `CN1CCN(c2ccc3cc(C(=O)Nc4cc(-c5cccs5)ccc4N)cnc3c2)CC1` [Compound 032], the concentration for half-maximal inhibition (IC50) in series [1] was 25 to 35 nM. Also, the half-inhibitory concentration (IC50) in series [2] lay in the range of 280 to 300 nM. In addition, in series [3], the area under the curve (AUC) is less than 15 ng·h/mL, the CL renal is less than 8.33 mL/min/kg and the half-life lay in the range of 30 to 120 min. In series [4], this compound yielded an IC50 of 5 to 10 nM.

Source of the values: patent US11858919B2, “HDAC1,2 inhibitors” (REGENACY PHARMACEUTICALS, LLC, priority 2018, dated 2024).
